Measurements as given in patent US20200386742A1, “CELL SYSTEMS USING SPHEROIDS AND METHODS OF MAKING AND USING THE SAME” (priority 2017, published 2020).

Test system: embryonic dorsal root ganglion (DRG) explants
Assay type: cell-based

Compound: NC1=N[C@H](O)[C@H]2[C@H]3O[C@]4(O)O[C@@H]([C@@H](O)[C@@]2(N1)[C@@H]4O)[C@]3(O)CO [tetrodotoxin]
- effect on electrically evoked compound action potentials (CAPs): reversibly abolished
